Literature values as cited in US20140045805A1, “Fragrance Compositions and Other Compositions Which Contain Naturally Occurring Substances Found in Corals” (priority 2007, published 2014).

Target: T1, human testicular 17α Hydroxylase/C17-20-Lyase (Homo sapiens, UniProt P05093)
T1 sequence (P05093 1-508): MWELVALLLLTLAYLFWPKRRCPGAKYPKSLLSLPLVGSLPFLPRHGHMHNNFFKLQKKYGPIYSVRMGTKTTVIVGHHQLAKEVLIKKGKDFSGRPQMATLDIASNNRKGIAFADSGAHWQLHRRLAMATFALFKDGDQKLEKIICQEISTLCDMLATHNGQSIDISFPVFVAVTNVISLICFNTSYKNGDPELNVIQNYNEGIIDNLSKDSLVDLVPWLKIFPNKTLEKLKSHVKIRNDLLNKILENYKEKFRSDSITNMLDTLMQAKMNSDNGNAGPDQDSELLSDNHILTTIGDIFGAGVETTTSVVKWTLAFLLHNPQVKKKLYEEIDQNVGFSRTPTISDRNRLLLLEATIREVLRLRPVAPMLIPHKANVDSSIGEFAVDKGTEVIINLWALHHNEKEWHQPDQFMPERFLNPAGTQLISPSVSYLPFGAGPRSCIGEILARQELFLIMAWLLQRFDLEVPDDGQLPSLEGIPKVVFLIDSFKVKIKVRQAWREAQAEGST
Details: Li et al. 1996; Brodie et al. U.S. Pat. No. 5,994,334; cited from earlier work

## C=C[C@H]1CC[C@H]2[C@@H]3CC=C4C[C@@H](O)CC[C@]4(C)[C@H]3CC[C@]12C [pregna-5,20-dien-3β-ol, Pregna-5,20-dien-3β-ol]
  Inhibition of human testicular 17α Hydroxylase/C17-20-Lyase: little activity
